From US11773140B2, “Gram-negative lysin-antimicrobial peptide (AMP) polypeptide constructs, lysins, isolated polynucleotides encoding same and uses thereof in human serum” (priority 2018, dated 2023)
Like-named read-outs stand apart in the source and are kept apart here.

Legend:
Format in all cases: cell-based, Pseudomonas aeruginosa
[1] = tested on: carbapenem-resistant P. aeruginosa isolate PA24
Description: (§1) Such resensitization may be determined by combining the present lysins or lysin-AMP polypeptide constructs with an antibiotic in a checkerboard assay as described herein. Antibiotic-resistant bacteria, such as carbapenem-resistant P. aeruginosa, are added to the lysin or lysin-AMP polypeptide construct combination. […] See Clinical and Laboratory Standards Institute (CLSI), CLSI. […] M100 Performance Standards for Antimicrobial Susceptibility Testing; 29th Edition. Clinical and Laboratory Standards Institute, Wayne, Pa.
(§2) Up to seven carbapenem-resistant isolates were assessed. […] See Clinical and Laboratory Standards Institute (CLSI), CLSI. […] M100 Performance Standards for Antimicrobial Susceptibility Testing; 29th Edition. Clinical and Laboratory Standards Institute, Wayne, Pa.

[2] = tested on: carbapenem-resistant P. aeruginosa isolate PA23
Description: as §1, §2

[3] = tested on: carbapenem-resistant P. aeruginosa isolate PA22
Description: as §1, §2

[4] = tested on: carbapenem-resistant P. aeruginosa isolate PA20
Description: as §1, §2

[5] = tested on: carbapenem-resistant isolate WC-452
Description: as §1, §2

[6] = tested on: carbapenem-resistant P. aeruginosa isolate PA21
Description: as §1, §2

[7] = tested on: carbapenem-resistant P. aeruginosa isolate PA19
Description: as §1, §2

Structure (SMILES) | carbapenem susceptibility category, Alone [1] | carbapenem MIC, Combination ([1]; in combination with GN121) | carbapenem MIC, Combination ([1]; in combination with GN123) | carbapenem susceptibility category, Combination ([1]; in combination with GN123) | carbapenem susceptibility category, Alone [2] | carbapenem MIC, Combination ([2]; in combination with GN123) | carbapenem susceptibility category, Combination ([2]; in combination with GN123) | carbapenem susceptibility category, Alone [3] | carbapenem MIC, Combination ([3]; in combination with GN121) | carbapenem MIC, Combination ([3]; in combination with GN123) | carbapenem susceptibility category, Combination ([3]; in combination with GN123) | carbapenem susceptibility category, Alone [4] | carbapenem MIC, Combination ([4]; in combination with GN121) | carbapenem MIC, Combination ([4]; in combination with GN123) | carbapenem susceptibility category, Combination ([4]; in combination with GN123) | carbapenem susceptibility category, Alone [5] | carbapenem MIC, Combination ([5]; in combination with GN123) | carbapenem susceptibility category, Combination ([5]; in combination with GN123) | carbapenem susceptibility category, Alone [6] | carbapenem MIC, Combination ([6]; in combination with GN121) | also measured
C[C@@H](O)[C@H]1C(=O)N2C(C(=O)O)=C(S[C@@H]3CN[C@H](C(=O)N(C)C)C3)[C@H](C)[C@H]12 [MEROPENEM, meropenem] | R ((R) = resistant) | 1 µg/mL | 2 µg/mL | S ((S) = sensitive) | R ((R) = resistant) | 0.5 µg/mL | S ((S) = sensitive) | R ((R) = resistant) | 1 µg/mL | 1 µg/mL | S ((S) = sensitive) | R ((R) = resistant) | 1 µg/mL | 0.5 µg/mL | S ((S) = sensitive) | R ((R) = resistant) | 1 µg/mL | S ((S) = sensitive) | R ((R) = resistant) | 2 µg/mL | carbapenem MIC, Combination ([2]; in combination with GN121): 2 µg/mL; carbapenem MIC, Combination ([5]; in combination with GN121): 1 µg/mL; carbapenem MIC, Combination ([6]; in combination with GN123): 1 µg/mL; carbapenem susceptibility category, Combination ([6]; in combination with GN123): S ((S) = sensitive); carbapenem susceptibility category, Alone [7]: R ((R) = resistant); carbapenem MIC, Combination ([7]; in combination with GN121): 1 µg/mL; carbapenem MIC, Combination ([7]; in combination with GN123): 0.5 µg/mL; carbapenem susceptibility category, Combination ([7]; in combination with GN123): S ((S) = sensitive)
C[C@@H](O)[C@H]1C(=O)N2C(C(=O)O)=C(SCCN=CN)C[C@H]12 [imipenem] | R ((R) = resistant) | 1 µg/mL | 2 µg/mL | S ((S) = sensitive) | R ((R) = resistant) | 0.25 µg/mL | S ((S) = sensitive) | R ((R) = resistant) | 2 µg/mL | 2 µg/mL | S ((S) = sensitive) | R ((R) = resistant) | 0.5 µg/mL | 1 µg/mL | S ((S) = sensitive) | R ((R) = resistant) | 1 µg/mL | S ((S) = sensitive) | R ((R) = resistant) | 1 µg/mL | carbapenem susceptibility category, Combination ([1]; in combination with GN121): S ((S) = sensitive); MIC, Alone ([2]; agent alone (carbapenem or lysin)): 16 µg/mL; carbapenem susceptibility category, Combination ([2]; in combination with GN121): S ((S) = sensitive); carbapenem susceptibility category, Combination ([3]; in combination with GN121): S ((S) = sensitive); carbapenem susceptibility category, Combination ([4]; in combination with GN121): S ((S) = sensitive); carbapenem susceptibility category, Combination ([6]; in combination with GN121): S ((S) = sensitive); carbapenem MIC, Combination ([6]; in combination with GN123): 0.5 µg/mL; carbapenem susceptibility category, Combination ([6]; in combination with GN123): S ((S) = sensitive); carbapenem susceptibility category, Alone [7]: R ((R) = resistant); carbapenem MIC, Combination ([7]; in combination with GN121): 1 µg/mL; carbapenem susceptibility category, Combination ([7]; in combination with GN121): S ((S) = sensitive); carbapenem MIC, Combination ([7]; in combination with GN123): 0.5 µg/mL; carbapenem susceptibility category, Combination ([7]; in combination with GN123): S ((S) = sensitive)
